In patent US5177096A, “Substituted 5-((tetrazolyl)alkenyl)imidazoles and pharmaceutical methods of use thereof” (SmithKline Beecham Corporation, priority 1990, dated 1993):
Where two headings read alike, the source gives them in different places.

Test system: pressor response to angiotensin II
Assay: Inhibition of pressor response to angiotensin II in conscious rats
Type: in vivo
Details: Rattus norvegicus, read-out: IC50 (dose of compound needed to produce 50% inhibition of the control response to angiotensin II)
Procedure: Angiotensin II antagonist activity of the compounds of Formula (I) is assessed by in vitro and in vivo methods. In vitro antagonist activity is determined by the ability of the compounds to compete with ^125 I-angiotensin II for binding to vascular angiotensin II receptors and by their ability to antagonize the contractile response to angiotensin II in the isolated rabbit aorta. In vivo activity is evaluated by the efficacy of the compounds to inhibit the pressor response to exogenous angiotensin II in conscious rats and to lower blood pressure in a rat model of renin dependent hypertension.
Rats are prepared with indwelling femoral arterial and venous catheters and a stomach tube (Gellai et al., Kidney Int. 15:419, 1979). Two to three days following surgery the rats are placed in a restrainer and blood pressure is continuously monitored from the arterial catheter with a pressure transducer and recorded on a polygraph. The change in mean arterial pressure in response to intravenous injections of […] angiotensin II is compared at various time points prior to and following the administration of the compounds intravenously or orally at doses of 3 to 300 mg/kg. The dose of compound needed to produce 50% inhibition of the control response to angiotensin II (IC50) is used to estimate the potency of the compounds.

CCCCc1ncc(/C=C(\Cc2cccs2)c2nnn[nH]2)n1Cc1ccccc1Cl [Example 1, (E)-1-[2-n-Butyl-1-{(2-chlorophenyl)methyl}-1H-imidazol-5-yl]-2-(1H-tetrazol-5-yl)-3-(2-thienyl)-1-propene]
ED50 (iv): 8 mg/kg
ED50 (po, orally): 13 mg/kg
